Source: ChEMBL document CHEMBL1158728, “Makaluvic acids from the South African latrunculid sponge Strongylodesma aliwaliensis” (J Nat Prod, 2005)

Assay: Cytotoxicity against human WHCO1 cells after 48 hrs by MTT assay
Assay type: functional, cell-based
Conditions: WHCO1, 48 h

| Structure (SMILES) | IC50 |
| --- | --- |
| O=C1NCCc2cn([C@@H]3O[C@H](CO)[C@@H](O)[C@H]3O)c(C(=O)O)c21 | 61 µM |
| NC1=CC2=NCCc3cn([C@@H]4O[C@H](CO)[C@@H](O)[C@H]4O)c(c32)C1=O | 1.6 µM |
| O=C1C=C2NCCc3cn([C@@H]4O[C@H](CO)[C@@H](O)[C@H]4O)c(c32)C1=O | 38 µM |
| O=C1C=C2NCCc3c[nH]c(c32)C1=O [DAMIRONE C] | 56 µM |
| O=C1C(N/C=C/c2ccc(O)cc2)=CC2=NCCc3c[nH]c1c32 [MAKALUVAMINE M] | 0.7 µM |
| O=C(O)c1[nH]cc2c1C(=O)NCC2 [MAKALUVIC ACID C] | > 150 µM |
